# Structures can show the parent of a compound that is named as a salt.
# Molecular target: T1, endogenous AR (Homo sapiens, UniProt P10275)
# T1 construct: that each express endogenous AR; endogenous in cells; host or cells: LAPC4
# T1 sequence (P10275 1-920): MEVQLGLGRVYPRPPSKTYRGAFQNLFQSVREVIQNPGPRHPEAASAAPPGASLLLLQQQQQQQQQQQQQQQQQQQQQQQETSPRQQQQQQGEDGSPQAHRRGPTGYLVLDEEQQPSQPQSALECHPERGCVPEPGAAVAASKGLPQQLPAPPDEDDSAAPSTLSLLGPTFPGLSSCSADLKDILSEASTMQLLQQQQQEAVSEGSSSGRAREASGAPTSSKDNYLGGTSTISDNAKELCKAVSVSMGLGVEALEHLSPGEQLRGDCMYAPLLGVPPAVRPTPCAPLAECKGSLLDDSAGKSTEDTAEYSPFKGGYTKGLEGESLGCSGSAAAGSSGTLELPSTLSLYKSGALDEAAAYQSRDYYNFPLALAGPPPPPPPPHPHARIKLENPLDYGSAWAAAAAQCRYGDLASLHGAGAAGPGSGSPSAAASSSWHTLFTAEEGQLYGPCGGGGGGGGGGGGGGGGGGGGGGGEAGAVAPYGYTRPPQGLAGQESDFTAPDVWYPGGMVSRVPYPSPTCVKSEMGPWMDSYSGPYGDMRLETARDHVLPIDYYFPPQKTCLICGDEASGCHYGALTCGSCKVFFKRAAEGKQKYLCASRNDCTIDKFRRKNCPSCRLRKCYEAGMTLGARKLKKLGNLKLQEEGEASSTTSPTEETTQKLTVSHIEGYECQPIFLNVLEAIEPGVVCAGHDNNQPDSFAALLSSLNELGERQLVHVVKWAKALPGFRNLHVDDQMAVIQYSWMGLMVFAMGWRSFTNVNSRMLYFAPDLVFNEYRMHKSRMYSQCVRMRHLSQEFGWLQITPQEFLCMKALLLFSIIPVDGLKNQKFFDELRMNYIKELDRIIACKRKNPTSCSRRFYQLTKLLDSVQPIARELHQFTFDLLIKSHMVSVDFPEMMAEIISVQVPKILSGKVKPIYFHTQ
# Assay type: cell-based
# Details: LAPC4, 3 nM DHT plus 1 μM BIC, 100 nM PP or 100 nM HH
# Protocol: LAPC4 and LNCaP cells were grown in the presence or absence of 3 nM DHT in charcoal-stripped media, with or without the inhibitors. RNA was harvested using an RNAeasy kit (Qiagen) and reverse transcribed (MMLV-RT, Invitrogen). Real-time PCR was carried out on a 7300 Real Time PCR System (Applied Biosystems) using SYBR green as the detecting dye and Rox as the reference dye. The androgen responsive genes kalikrein 3, or PSA (KLK3) [Cleutjens, K. B., et al., Two androgen response regions cooperate in steroid hormone regulated activity of the prostate-specific antigen promoter. J Biol Chem, 1996. 271(11): p. 6379-88; Nelson, P. S., et al., The program of androgen-responsive genes in neoplastic prostate epithelium. Proc Natl Acad Sci USA, 2002. 99(18): p. 11890-5), metalloproteinase 16 (MMP16) (Nelson, P. S., et al., The program of androgen-responsive genes in neoplastic prostate epithelium. Proc Natl Acad Sci USA, 2002. 99(18): p. 11890-5), transmembrane protease serine 2 (TMPRSS2) (Nelson, P. S., et al., The program of androgen-responsive genes in neoplastic prostate epithelium. Proc Natl Acad Sci USA, 2002. 99(18): p. 11890-5; […] Vaarala, M. H., et al., Expression of transmembrane serine protease TMPRSS2 in mouse and human tissues. J Pathol, 2001. 193(1): p. 134-40), FK506-binding immunophilin 51 (FKBP51) (Nelson, P. S., et al., The program of androgen-responsive genes in neoplastic prostate epithelium. Proc Natl Acad Sci USA, 2002. 99(18): p. 11890-5; Amler, L. C., et al., Dysregulated expression of androgen-responsive and nonresponsive genes in the androgen-independent prostate cancer xenograft model CWR22-R1. Cancer Res, 2000. 60(21): p. 6134-41; Velasco, A. M., et al., Identification and validation of novel androgen-regulated genes in prostate cancer. Endocrinology, 2004. 145(8): p. 3913-24; Magee, J. A., et al., Direct, androgen receptor-mediated regulation of the FKBP5 gene via a distal enhancer element. Endocrinology, 2006. 147(1): p. 590-8), G-protein coupled receptor RDC1 homolog, or chemokine orphan receptor 1 (RDC-1) (Nelson, P. S., et al., The program of androgen-responsive genes in neoplastic prostate epithelium. Proc Natl Acad Sci USA, 2002. 99(18): p. 11890-5), NK homeobox family member 3 (NRx3.1) (Nelson, P. S., et al., The program of androgen-responsive genes in neoplastic prostate epithelium. Proc Natl Acad Sci USA, 2002. 99(18): p. 11890-5; Bieberich, C. J., et al., Prostate-specific and androgen-dependent expression of a novel homeobox gene. J Biol Chem, 1996. 271(50): p. 31779-82; […]) were all normalized to the transcription of the housekeeping ribosomal gene (RPL19). All samples were done in triplicate and separately normalized.
smiles,measurement,setting,value
"Cc1nccc2c1[nH]c1cc(O)ccc12 [HH, harmol hydrochloride]",Nkx3.1 transcription (normalized to RPL19),"No DHT = 1, 3 nM DHT = 1.08",1.55
same,TMPRSS2 transcription (normalized to RPL19),"No DHT = 1, 3 nM DHT = 1.13",1.86
same,KLK3 transcription (normalized to RPL19),"No DHT = 1, 3 nM DHT = 1.97",1.64
same,FKBP51 transcription (normalized to RPL19),"No DHT = 1, 3 nM DHT = 21.4",11.96
same,RDC1 transcription (normalized to RPL19),"androgen-repressed gene, No DHT = 1, 3 nM DHT = 0.63",2.88
same,MMP16 transcription (normalized to RPL19),"androgen-repressed gene, No DHT = 1, 3 nM DHT = 0.71",4.74

# From patent publication US8580773B2, “Small-molecule inhibitors of the androgen receptor” (The Regents of the University of California, priority 2008, dated 2013)
